Several values for one entry are separate records, joined by “and”; a condition that tells them apart may be missing. Equal values may be shown once.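 Compound exposure: 48 hours, 5 concentrations, 96-well plates. GI50 = concentration required for 50% inhibition of growth.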 Activity calls are given as the source filed them. Cut-off read from the data, not from the text of the source: active = GI50 up to about 1.1 µM and inactive = higher.
Legend:
Assay in all cases: NCI-60 cell line screen, 48 h
IGROV-1 = system: IGROV-1
HOP-92 = system: HOP-92
OVCAR-3 = system: OVCAR-3
TK-10 = system: TK-10
EKVX = system: EKVX
CCRF-CEM = system: CCRF-CEM
HCT-116 = system: HCT-116
HL-60 = system: HL-60
ACHN = system: ACHN
UACC-257 = system: UACC-257
A549 = system: A549
SN12C = system: SN12C
OVCAR-8 = system: OVCAR-8
NCI-H23 = system: NCI-H23
SK-MEL-2 = system: SK-MEL-2
NCI-H522 = system: NCI-H522
SF-539 = system: SF-539
COLO 205 = system: COLO 205
SF-268 = system: SF-268
HCT-15 = system: HCT-15

Structure (SMILES) | GI50 (IGROV-1) | GI50 (HOP-92) | GI50 (OVCAR-3) | GI50 (TK-10) | GI50 (EKVX) | GI50 (CCRF-CEM) | GI50 (HCT-116) | GI50 (HL-60) | GI50 (ACHN) | GI50 (UACC-257) | GI50 (A549) | GI50 (SN12C) | GI50 (OVCAR-8) | GI50 (NCI-H23) | GI50 (SK-MEL-2) | GI50 (NCI-H522) | GI50 (SF-539) | GI50 (COLO 205) | GI50 (SF-268) | GI50 (HCT-15) [µM]
O=C1OC(c2ccccc2)=N/C1=C\c1ccccc1 | 55.5 µM (inactive) and 37.6 µM (inactive) | > 100 µM (inactive) | 24 µM (inactive) | 62.7 µM (inactive) and 78.2 µM (inactive) | > 100 µM (inactive) | 21 µM (inactive) and 24.6 µM (inactive) | > 100 µM (inactive) | 29.5 µM (inactive) and 18.7 µM (inactive) | > 100 µM (inactive) | 41.4 µM (inactive) and 25.9 µM (inactive) | > 100 µM (inactive) | 66.4 µM (inactive) | 38.8 µM (inactive) and 32.6 µM (inactive) | > 100 µM (inactive) | 17.8 µM (inactive) | 42.9 µM (inactive) | 19 µM (inactive) and 21.1 µM (inactive) | – | – | –
Nc1ccc2cc(S(=O)(=O)O)cc(O)c2c1/N=N/c1ccc(NC(=O)Nc2ccc(/N=N/c3c(N)ccc4cc(S(=O)(=O)O)cc(O)c34)c(S(=O)(=O)O)c2)cc1S(=O)(=O)O | > 100 µM (inactive) | > 54.8 µM (inactive) | > 100 µM (inactive) | – | > 100 µM (inactive) | > 69.3 µM (inactive) | > 100 µM (inactive) | 44.4 µM (inactive) | – | > 100 µM (inactive) | > 100 µM (inactive) | > 100 µM (inactive) | > 100 µM (inactive) | > 100 µM (inactive) | > 100 µM (inactive) | > 100 µM (inactive) | > 100 µM (inactive) | > 100 µM (inactive) | > 100 µM (inactive) | > 91.2
Oc1cccc(-c2nc3ccccc3s2)c1 | 5.02 µM (inactive) | 25.5 µM (inactive) | 21.6 µM (inactive) | – | 5.69 µM (inactive) | 57 µM (inactive) | 33 µM (inactive) | 47.8 µM (inactive) | 41 µM (inactive) | 26.4 µM (inactive) | 26.2 µM (inactive) | 33.8 µM (inactive) | 27.2 µM (inactive) | 15.8 µM (inactive) | 28.4 µM (inactive) | 17.6 µM (inactive) | 28.7 µM (inactive) | 35.9 µM (inactive) | 19.8 µM (inactive) | 25.5
N/C(=N\O)N/N=C/c1cc2c(cc1Cl)OCO2 | 43 µM (inactive) | 28.3 µM (inactive) | – | – | 60.4 µM (inactive) | 27 µM (inactive) | 51.5 µM (inactive) | 13.1 µM (inactive) | – | 42.3 µM (inactive) | 36.8 µM (inactive) | 59 µM (inactive) | 40.6 µM (inactive) | 58.1 µM (inactive) | 32.1 µM (inactive) | 16 µM (inactive) | 31.8 µM (inactive) | 33.3 µM (inactive) | 25.4 µM (inactive) | 13.7
N=C(N)NCC(N)C(=O)O (stereo not drawn) | > 100 µM (inactive) | > 100 µM (inactive) | > 100 µM (inactive) | > 100 µM (inactive) | > 100 µM (inactive) | – | > 100 µM (inactive) | > 100 µM (inactive) | > 100 µM (inactive) | > 100 µM (inactive) | > 100 µM (inactive) | > 100 µM (inactive) | > 100 µM (inactive) | > 100 µM (inactive) | > 100 µM (inactive) | > 100 µM (inactive) | > 100 µM (inactive) | > 100 µM (inactive) | > 100 µM (inactive) | > 100
CCCCCCC1NN(C(C)=O)C(CCCCCC)NN1C(C)=O (stereo not drawn) | > 100 µM (inactive) | > 100 µM (inactive) | > 100 µM (inactive) | > 100 µM (inactive) | > 100 µM (inactive) | 42.2 µM (inactive) | > 100 µM (inactive) | 46.5 µM (inactive) | > 100 µM (inactive) | > 100 µM (inactive) | – | > 100 µM (inactive) | > 100 µM (inactive) | > 100 µM (inactive) | > 100 µM (inactive) | > 100 µM (inactive) | > 100 µM (inactive) | > 100 µM (inactive) | – | > 100
FC(F)(F)c1ccc2c(c1)nc1n2C(c2c(Cl)cccc2Cl)SC1 (stereo not drawn) | 17.3 µM (inactive) | 13.6 µM (inactive) | 13.2 µM (inactive) | 22 µM (inactive) | 14.2 µM (inactive) | – | 15.1 µM (inactive) | 23.8 µM (inactive) | 15.9 µM (inactive) | 18.9 µM (inactive) | 18.2 µM (inactive) | 16.9 µM (inactive) | 25.4 µM (inactive) | 20.5 µM (inactive) | 17.7 µM (inactive) | 22 µM (inactive) | 19.7 µM (inactive) | – | 19.1 µM (inactive) | 21.6
c1ccc(/N=C(\N2CCCCC2)N(CCN2CCCCC2)c2ccccc2)cc1 | 0.396 µM (active) | 1.44 µM (inactive) | 0.401 µM (active) | 2.96 µM (inactive) | – | 1 µM (active) | 0.0736 µM (active) | 0.277 µM (active) | 1.58 µM (inactive) | 1.82 µM (inactive) | 2.11 µM (inactive) | 2.11 µM (inactive) | 2.01 µM (inactive) | 0.773 µM (active) | 1.76 µM (inactive) | 0.428 µM (active) | – | 0.658 µM (active) | – | 1.68

Source: ChEMBL document CHEMBL1201862, “PubChem BioAssay data set” (2004)
